Measured values from patent US6485713B1, “Sunscreen compositions and methods and materials for producing the same” (The C. P. Hall Company, priority 2002, dated 2002).
Several values for one entry are separate records, joined by “and”; a condition that tells them apart may be missing. Equal values may be shown once. Read-outs that look alike come from different tables or passages of the source. Marks after values point to notes of the source that are not given here.

Assays:
[1] = Dielectric constants of sunscreen ingredients at 25° C.; format: physicochemical; details: for Dielectric Constant at 25° C. (ε), estimated value: marked estimated; for Dielectric Constant at 25° C. (ε): neat ingredient
Source text: A step of determining the polarity of a mixture or an emulsion can be performed in various ways. For example, determining a polarity can include measuring a property that is a function of polarity, such as a dielectric constant. Measurement of a dielectric constant of a liquid can be performed by various sensors, such as immersion probes, flow-through probes, and cup-type probes, attached to various meters, such as those available from the Brookhaven Instruments Corporation of Holtsville, N.Y. (e.g., model BI-870) and the Scientifica Company of Princeton, N.J. (e.g. models 850 and 870). For consistency of comparison, preferably all measurements for a particular filter system are performed at substantially the same sample temperature, e.g., by use of a water bath. Generally, the measured dielectric constant of a substance will increase at lower temperatures and decrease at higher temperatures.
A mixture of solvent system and filter system, in accordance with one preferred embodiment, are combined with well-known cosmetically-acceptable additives, such as moisturizers, emollients, solvents, co-solvents, lubricants, thickeners, emulsifiers and/or other common cosmetic formulation additives for solubility of sunscreen active compounds, emulsification, thickening and to provide other skin enhancement, e.g., moisturizing properties. The compositions can be produced as oily lotions, gels, solid sticks, emulsions, aerosols, and all other forms of cosmetic compositions. The dielectric constants of various sunscreen additive materials are well known, see, Dielectric Constant Reference Guide of ASI Instruments, Inc., pages 1-64, (http://asiinstruments.com/dcl.html), hereby incorporated herein by reference.

[2] = marked literature value, cited from earlier work
[3] = Solvency testing of solvents for avobenzone; format: physicochemical; details: solute avobenzone dissolved in the named solvent
Source text: (§1) Examples of crystalline UV filters include oxybenzone, avobenzone, and octyl triazone (sold under the trade name UVINUL T-150 by BASF Corporation) and methylbenzilidene camphor.

[4] = Solvency testing of solvents for oxybenzone; format: physicochemical; details: solute oxybenzone dissolved in the named solvent
Source text: as §1

[5] = Solvency testing of solvents for octyl triazone; format: physicochemical; details: solute octyl triazone dissolved in the named solvent
Source text: as §1

[6] = Solvency for crystalline UV filters, comparison with traditional solvents; format: physicochemical; details: compared to traditional solvents used in sunscreen compositions
Source text: as §1

COc1ccc(C(=O)CC(=O)c2ccc(C(C)(C)C)cc2)cc1 [Avobenzone, 4-(1,1-dimethylethyl)-4′-methoxydibenzoylmethane, reference compound]
Dielectric Constant at 25° C. (ε), estimated value [1]: ~10 (estimated.) | Dielectric Constant at 25° C. (ε), estimated value ([1]; listed as avobenzone): ~10*

COc1ccc(C(=O)c2ccccc2)c(O)c1 [Benzophenone-3, benzophenone-3]
Dielectric Constant at 25° C. (ε), literature value ([2]; listed as benzophenone-3): 13^† | Dielectric Constant at 25° C. (ε), literature value [2]: 13

CCCCCCC(CCCC)COC(=O)CC(O)C(=O)OCC(CCCC)CCCCCC (centres unmarked) [Dibutyloctyl malate, bis(2-butyloctyl)malate]
Dielectric Constant at 25° C. (ε) [1]: 4.65

CCCCC(CC)COC(=O)c1ccc2cc(C(=O)OCC(CC)CCCC)ccc2c1 (centres unmarked) [Diethylhexyl 2,6-naphthalate]
Dielectric Constant at 25° C. (ε) [1]: 4.34

CCCCC(CC)COC(=O)CCCCC(=O)OCC(CC)CCCC (centres unmarked) [Diethylhexyl adipate]
Solvency for Avobenzone [3]: 10% wt. % | Dielectric Constant at 25° C. (ε) [1]: 4.21 | Solvency for Oxybenzone [4]: 20% wt. % | Solvency for Octyl triazone [5]: <5% wt. %

CC(C)CCOC(=O)CC(O)C(=O)OCCC(C)C (centres unmarked) [Diisoamyl malate]
Dielectric Constant at 25° C. (ε) [1]: 7.42

CCCCCCCCOC(=O)CC(O)C(=O)OCCCCCCCC (centres unmarked) [Dioctyl malate]
Dielectric Constant at 25° C. (ε) [1]: 4.74 and 5.78

CCCCC(CC)COC(=O)C=Cc1ccc(OC)cc1 (centres unmarked) [Ethylhexyl methoxycinnamate, 2-ethylhexyl paramethoxycinnamate, reference compound]
Solvency for Avobenzone [3]: 17% wt. % | Dielectric Constant at 25° C. (ε) [1]: 5.98 | Solvency for Oxybenzone [4]: 24% wt. % | Solvency for Octyl triazone [5]: 15% wt. %

CCCCCCCCCCCCCCCC(=O)OCC(CC)CCCC (centres unmarked) [Ethylhexyl palmitate]
Dielectric Constant at 25° C. (ε) [1]: 3.06

CCCCC(CC)COC(=O)c1ccccc1O (centres unmarked) [Ethylhexyl salicylate, 2-ethylhexyl salicylate, reference compound]
Solvency for Avobenzone [3]: 16% wt. % | Dielectric Constant at 25° C. (ε) [1]: 6.20 | Dielectric Constant at 25° C. (ε) ([1]; listed as octyl salicylate): 6.2 | Solvency for Oxybenzone [4]: 18% wt. % | Solvency for Octyl triazone [5]: 5% wt. %

CCCCCCCCCCCCCCCCCC(=O)OCC(CC)CCCC (centres unmarked) [Ethylhexyl stearate]
Dielectric Constant at 25° C. (ε) [1]: 3.05

CCCCCCCCCCCCCCCCCC(C)C [Isoeicosane]
Dielectric Constant at 25° C. (ε) [1]: 2.04

CCCCCCCCCCCCCC(=O)OC(C)C [Isopropyl myristate]
Solvency for Avobenzone [3]: 15% wt. % | Dielectric Constant at 25° C. (ε) [1]: 3.24 | Solvency for Oxybenzone [4]: 20% wt. % | Solvency for Octyl triazone [5]: <5% wt. %

CCCCCCCCCCCCCCCC(=O)OC(C)C [Isopropyl palmitate]
Dielectric Constant at 25° C. (ε) [1]: 3.20

CCCCCCCCCC(=O)N(C)C [N,N-dimethyldecanamide]
Solvency for Avobenzone [3]: 37% wt. % | Dielectric Constant at 25° C. (ε) [1]: 12.43 | Solvency for Oxybenzone [4]: 38% wt. % | ability to solvate crystalline UV filters (in words) [6]: far superior | Solvency for Octyl triazone [5]: 37% wt. %

CCCCC(CC)COC(=O)C(C#N)=C(c1ccccc1)c1ccccc1 (centres unmarked) [Octocrylene, 2-ethylhexyl-2-cyano-3,3 diphenylacrylate, reference compound]
Solvency for Avobenzone [3]: 27% wt. % | Dielectric Constant at 25° C. (ε) [1]: 11.08 | Solvency for Oxybenzone [4]: 32% wt. % | Solvency for Octyl triazone [5]: 1% wt. %

O [Water]
Dielectric Constant at 25° C. (ε) [1]: 80

Diethylhexyl malate
Solvency for Avobenzone [3]: 12.5% wt. % and 15% wt. % | Dielectric Constant at 25° C. (ε) [1]: 4.74 and 5.88 | Dielectric Constant at 25° C. (ε) ([1]; listed as diethylhexyl malate): 5.88 | Solvency for Oxybenzone [4]: 19% wt. % and 15% wt. % | Solvency for Octyl triazone [5]: 5% wt. % and <5% wt. %

Isododecyl alcohol dimer with HDI
Dielectric Constant at 25° C. (ε), estimated value [1]: ~10 (estimated.) | Dielectric Constant at 25° C. (ε), estimated value ([1]; listed as isododecyl alcohol dimer w/HDI): ~10*

Octyldodecyl neopentanoate
Dielectric Constant at 25° C. (ε) [1]: 3.04

PPG-2 myristyl ether propionate
Dielectric Constant at 25° C. (ε) [1]: 3.88

isododecyl alcohol dimer with isopherone diisocyanate (IPDI) [Isododecyl alcohol dimer with IPDI]
Dielectric Constant at 25° C. (ε), estimated value [1]: ~10 (estimated.) | Dielectric Constant at 25° C. (ε), estimated value ([1]; listed as isododecyl alcohol dimer w/IPDI): ~10*
